Data published in US9174942B2, “IDO inhibitors” (NewLink Genetics Corporation, priority 2008, dated 2015).
Counter-ions that a name gives are not always drawn.

Target: T1, purified human IDO protein (Homo sapiens, UniProt P14902, E119G/P110S)
T1 construct: 6-Histidine tag (C); made in house; host or cells: E. coli M15(pREP4) transformed with pQE70-hIDO
Test: Enzymatic IDO assay (kynurenine formation, absorbance at 480 nm)
Type: biochemical
Details: recombinant human IDO, 200 μM L-tryptophan, pH 6.5; reported in ranges
Method: The inhibitors were initially diluted in DMSO at 100 mM and were diluted in potassium phosphate 50 mM, added to the reaction mixture at final concentrations raging from 1 mM to 5 nM and preincubated with the enzyme for 5 min at 25° C. The reaction was started by addition of L-tryptophan to 200 μM and incubated 15 min at 37° C. The reaction was stopped by addition of 0.5 vol of 30% trichloroacetic acid and incubated 30 min at 60° C. to hydrolyze N-formylkynurenine to kynurenine. The reaction was centrifuged at 3400 g for 5 min to remove precipitated protein and the supernatant was reacted with 2% (w/v) of p-dimethylaminobenzaldehyde in acetic acid. The reaction was incubated 10 min at 25° C. and read at 480 nm in a spectrophotometer. […] Nonlinear regressions and determination of the IC50 values were performed using the GraphPad Prism 4 software.

T1 sequence (P14902 whole entry P110S/E119G): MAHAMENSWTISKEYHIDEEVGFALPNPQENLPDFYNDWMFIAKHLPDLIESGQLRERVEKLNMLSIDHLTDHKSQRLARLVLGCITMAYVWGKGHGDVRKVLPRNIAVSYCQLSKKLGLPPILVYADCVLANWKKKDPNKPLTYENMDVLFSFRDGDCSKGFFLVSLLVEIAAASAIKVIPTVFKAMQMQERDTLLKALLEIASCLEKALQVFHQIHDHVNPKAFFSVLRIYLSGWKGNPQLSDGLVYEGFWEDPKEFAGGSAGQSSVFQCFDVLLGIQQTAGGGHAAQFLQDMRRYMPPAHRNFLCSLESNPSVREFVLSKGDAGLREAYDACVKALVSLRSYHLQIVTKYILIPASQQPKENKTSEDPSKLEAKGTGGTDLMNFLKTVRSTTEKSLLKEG

SMILES | IC50
CCOC(=O)CCn1cncc1-c1ccccc1 [Compound 122, ethyl 3-(5-phenyl-1H-imidazol-1-yl)propanoate] | 100 to 500 µM
Clc1ccc(COc2c(Br)cccc2-c2c[nH]cn2)cc1 [Compound 60, 4-(3-bromo-2-(4-chlorobenzyloxy)phenyl)-1H-imidazole] | 20 to 100 µM
Clc1ccc(COc2cc(Cl)ccc2-c2c[nH]cn2)cc1 [Compound 147, 4-(4-chloro-2-(4-chlorobenzyloxy)phenyl)-1H-imidazole] | 20 to 100 µM
Cc1ccccc1Cn1cncc1-c1ccccc1 [Compound 77, 1-(2-methylbenzyl)-5-phenyl-1H-imidazole] | 20 to 100 µM
O=C(O)c1cccc(-c2c[nH]cn2)c1 [Compound 113, 3-(1H-imidazol-4-yl)benzoic acid] | 100 to 500 µM
CC(C)(C)OC(=O)NCCn1cncc1-c1ccccc1 [Compound 114, tert-butyl 2-(5-phenyl-1H-imidazol-1-yl)ethylcarbamate] | 100 to 500 µM
Oc1ccccc1Cn1cncc1-c1ccccc1 [Compound 65, 2-((5-phenyl-1H-imidazol-1-yl)methyl)phenol] | 20 to 100 µM
COC(=O)c1cccc(-c2c[nH]cn2)c1 [Compound 112, methyl 3-(1H-imidazol-4-yl)benzoate] | 100 to 500 µM
COc1ccccc1-c1cncn1CCC(C)(C)C [Compound 89, 1-(3,3-dimethylbutyl)-5-(2-methoxyphenyl)-1H-imidazole] | 20 to 100 µM
CC(C)(C)CCOc1cccc(O)c1-c1cnc[nH]1 [Compound 13, 3-(3,3-dimethylbutoxy)-2-(1H-imidazol-5-yl) phenol hydrochloride] | < 20 µM
COc1ccccc1Cn1cncc1-c1ccccc1 [Compound 110, 1-(2-methoxybenzyl)-5-phenyl-1H-imidazole] | 100 to 500 µM
COc1cccc(Cn2cncc2-c2ccccc2)c1 [Compound 93, 1-(3-methoxybenzyl)-5-phenyl-1H-imidazole] | 20 to 100 µM
Clc1cccc(Cn2cncc2-c2ccccc2)c1 [Compound 87, 1-(3-chlorobenzyl)-5-phenyl-1H-imidazole] | 20 to 100 µM
Nc1ccccc1-c1cnc[nH]1 [Compound 155, 2-(1H-imidazol-4-yl)aniline] | 20 to 100 µM
Oc1cccc(OCc2ccc(Cl)cc2)c1-c1cnc[nH]1 [Compound 73, 3-(4-chlorobenzyloxy)-2-(1H-imidazol-5-yl)phenol] | 20 to 100 µM
NC(=O)CCCn1cncc1-c1ccccc1 [Compound 129, 4-(5-phenyl-1H-imidazol-1-yl)butanamide] | 100 to 500 µM
Clc1ccccc1COc1ccccc1-c1c[nH]cn1 [Compound 75, 4-(2-(2-chlorobenzyloxy)phenyl)-1H-imidazole] | 20 to 100 µM
N#Cc1ccccc1Cn1cncc1-c1ccccc1 [Compound 96, 2-((5-phenyl-1H-imidazol-1-yl)methyl)benzonitrile] | 20 to 100 µM

SMILES | IC50
NC(=O)c1ccc(COc2ccccc2-c2c[nH]cn2)cc1 [Compound 146, 4-((2-(1H-imidazol-4-yl)phenoxy)methyl)benzamide] | 20 to 100 µM
CC(=O)Nc1ccccc1CCOc1ccccc1-c1c[nH]cn1 [Compound 165, N-(2-(2-(2-(1H-imidazol-4-yl)phenoxy)ethyl)phenyl) acetamide] | 100 to 500 µM
CC(C)(CCOc1ccccc1-c1c[nH]cn1)CCC(=O)O [Compound 83, 6-(2-(1H-imidazol-4-yl)phenoxy)-4,4-dimethylhexanoic acid hydrochloride] | 20 to 100 µM
c1ccc(-c2c[nH]cn2)c(OCC2CCNCC2)c1 [Compound 157, 4-((2-(1H-imidazol-4-yl)phenoxy)methyl)piperidine] | 20 to 100 µM
Cc1cccc(Cn2cncc2-c2ccccc2)c1 [Compound 90, 1-(3-methylbenzyl)-5-phenyl-1H-imidazole] | 20 to 100 µM
COC(=O)c1ccc(-c2c[nH]cn2)cc1 [Compound 115, methyl 4-(1H-imidazol-4-yl)benzoate] | 100 to 500 µM
CC(=O)N1CCCC(COc2ccccc2-c2c[nH]cn2)C1 (stereo not shown) [Compound 117, 1-(3-((2-(1H-imidazol-4-yl)phenoxy)methyl)piperidin-1-yl)ethanone] | 100 to 500 µM
N#Cc1ccccc1COc1ccccc1-c1c[nH]cn1 [Compound 99, 2-((2-(1H-imidazol-4-yl)phenoxy)methyl)benzonitrile] | 100 to 500 µM
COC(=O)Cn1cncc1-c1ccccc1 [Compound 105, methyl 2-(5-phenyl-1H-imidazol-1-yl)acetate] | 100 to 500 µM
c1ccc(-c2c[nH]cn2)c(OCC2CCCNC2)c1 (stereo not shown) [Compound 76, 3-((2-(1H-imidazol-4-yl)phenoxy)methyl)piperidine] | 20 to 100 µM
N#Cc1cccc(Cn2cncc2-c2ccccc2)c1 [Compound 69, 3-((5-phenyl-1H-imidazol-1-yl)methyl)benzonitrile] | 20 to 100 µM
CC(=O)NCCCn1cncc1-c1ccccc1 [Compound 124, N-(3-(5-phenyl-1H-imidazol-1-yl)propyl)acetamide] | 100 to 500 µM
NC(=O)COc1ccccc1-c1c[nH]cn1 [Compound 104, 2-(2-(1H-imidazol-4-yl)phenoxy)acetamide] | 100 to 500 µM
c1cnc(NCCOc2ccccc2-c2cnc[nH]2)nc1 [Compound 102] | 100 to 500 µM
CCc1ccc(O)c(-c2cnc[nH]2)c1 [Compound 111, 4-ethyl-2-(1H-imidazol-5-yl)phenol] | 100 to 500 µM
NCCCOc1ccccc1-c1cnc[nH]1 [Compound 92, 3-(2-(1H-imidazol-5-yl)phenoxy)propan-1-amine] | 20 to 100 µM
CC(C)(CCO)CCOc1ccccc1-c1c[nH]cn1 [Compound 167, 5-(2-(1H-imidazol-4-yl)phenoxy)-3,3-dimethylpentan-1-ol] | 20 to 100 µM

Now from value to compound:

IC50 | SMILES
< 20 µM | NC(=O)C1CCC(=CCOc2ccccc2-c2c[nH]cn2)CC1 (stereo not shown) [Compound 168, 4-(2-(2-(1H-imidazol-4-yl)phenoxy)ethylidene)cyclohexanecarboxamide]
< 20 µM | Brc1ccccc1CCOc1ccccc1-c1c[nH]cn1 [Compound 148, 4-(2-(2-bromophenethoxy)phenyl)-1H-imidazole]
20 to 100 µM | O=[N+]([O-])c1ccccc1Cn1cncc1-c1ccccc1 [Compound 71, 1-(2-nitrobenzyl)-5-phenyl-1H-imidazole]
< 20 µM | CNC(=O)CCC(C)(C)CCOc1ccccc1-c1c[nH]cn1 [Compound 38, 6-(2-(1H-imidazol-4-yl)phenoxy)-N,4,4-trimethylhexanamide]
20 to 100 µM | N#Cc1ccc(Cn2cncc2-c2ccccc2)cc1 [Compound 97, 4-((5-phenyl-1H-imidazol-1-yl)methyl)benzonitrile]
< 20 µM | Oc1ccc(CCOc2ccccc2-c2c[nH]cn2)cc1 [Compound 158, 4-(2-(2-(1H-imidazol-4-yl)phenoxy)ethyl)phenol]
< 20 µM | Oc1ccc(O)c(-c2c[nH]cn2)c1 [Compound 21, 2-(1H-imidazol-4-yl)benzene-1,4-diol]
< 20 µM | CC(C)(CCOc1ccccc1-c1c[nH]cn1)CCOc1ccccc1-c1cnc[nH]1 [Compound 18, 5,5′-(2,2′-(3,3-dimethylpentane-1,5-diyl)bis(oxy)bis(2,1-phenylene))bis(1H-imidazole)]
< 20 µM | Oc1ccc(C(F)(F)F)cc1-c1c[nH]cn1 [Compound 156, 2-(1H-imidazol-4-yl)-4-(trifluoromethyl)phenol]
< 20 µM | CC(C)(C)COc1ccccc1-c1c[nH]cn1 [Compound 31, 4-(2-(neopentyloxy)phenyl)-1H-imidazole]
< 20 µM | CNC(=O)c1cccc(CCOc2ccccc2-c2c[nH]cn2)c1 [Compound 50, 3-(2-(2-(1H-imidazol-4-yl)phenoxy)ethyl)-N-methylbenzamide]
< 20 µM | N#CC1CCC(=CCOc2ccccc2-c2c[nH]cn2)CC1 (stereo not shown) [Compound 160, 4-(2-(2-(1H-imidazol-4-yl)phenoxy)ethylidene)cyclohexanecarbonitrile]
< 20 µM | Clc1ccc(COc2ccccc2-c2cnc[nH]2)cc1 [Compound 14, 5-(2-(4-chlorobenzyloxy)phenyl)-1H-imidazole]
< 20 µM | CC(C)(CCOc1ccccc1-c1c[nH]cn1)CCn1c(=O)c(F)cn([C@@H]2O[C@H](CO)[C@@H](O)[C@H]2O)c1=O [Compound 162, 3-(5-(2-(1H-imidazol-4-yl)phenoxy)-3,3-dimethylpentyl)-1-((2R,3R,4S,5R)-3,4-dihydroxy-5-(hydroxymethyl)tetrahydrofuran-2-yl)-5-fluoropyrimidine-2,4(1H,3H)-dione]
< 20 µM | Clc1ccc(COc2ccc(Br)cc2-c2c[nH]cn2)cc1 [Compound 49, 4-(5-bromo-2-(4-chlorobenzyloxy)phenyl)-1H-imidazole]
< 20 µM | CC(=O)Nc1ccc(CCOc2ccccc2-c2c[nH]cn2)cc1 [Compound 34, N-(4-(2-(2-(1H-imidazol-4-yl)phenoxy)ethyl)phenyl) acetamide]
< 20 µM | Oc1ccccc1-c1cc[nH]n1 [Compound 43, 2-(1H-pyrazol-3-yl)phenol]
< 20 µM | Clc1ccccc1CCOc1ccccc1-c1c[nH]cn1 [Compound 15, 4-(2-(2-chlorophenethoxy)phenyl)-1H-imidazole]
< 20 µM | CC(C)(CCNCc1ccccc1)CCOc1ccccc1-c1c[nH]cn1 [Compound 166, 5-(2-(1H-imidazol-4-yl)phenoxy)-N-benzyl-3,3-dimethylpentan-1-amine]
< 20 µM | CC(=O)NC1CCC(=CCOc2ccccc2-c2c[nH]cn2)CC1 (stereo not shown) [Compound 39, N-(4-(2-(2-(1H-imidazol-4-yl)phenoxy)ethylidene)cyclohexyl)acetamide]
